{
  "source": "the Deep4Chem optical property database",
  "experiment": "solvent given as SMILES",
  "note": "Values joined by “and” are separate entries in the source; they are usually repeats but may differ in a detail not shown here. Equal values may be shown once.",
  "data": [
    {"smiles": "CCCCCCCCn1cc(-n2c(-c3cc(-c4nc5ccc(C)cc5n4-c4cn(CCCCCCCC)nn4)cc(-c4nc5ccc(C)cc5n4-c4cn(CCCCCCCC)nn4)c3)nc3ccc(C)cc32)nn1", "values": [
      {"measurement": "emission maximum", "setting": "in C1CCOC1", "result": 382.5, "unit": "nm"}
    ]},
    {"smiles": "Cn1cc(-c2nc3ccccc3nc2C#Cc2ccccc2)c2ccccc21", "values": [
      {"measurement": "emission maximum", "setting": "in ClCCl", "result": 510, "unit": "nm"}
    ]},
    {"smiles": "CCOC(=O)c1cc(C(=O)OCC)c2cc(N(C)C)ccc2n1", "values": [
      {"measurement": "emission maximum", "setting": "in CCO", "result": 564, "unit": "nm"}
    ]},
    {"smiles": "c1cc2c3c(c1)ccc1[n+]3[B-]3(Oc4cccc5ccc6[n+](c45)[B-](O2)(O3)n2c-6cc3c4ccccc4c4ccccc4c32)n2c-1cc1c3ccccc3c3ccccc3c12", "values": [
      {"measurement": "emission maximum", "setting": "in ClCCl", "result": 568, "unit": "nm"}
    ]},
    {"smiles": "N#Cc1ccc(-c2cc(-c3ccc(N4CCCC4)cc3)nc(-c3ccccc3)n2)cc1", "values": [
      {"measurement": "emission maximum", "setting": "in ClC(Cl)Cl", "result": 518, "unit": "nm"}
    ]},
    {"smiles": "Cc1c(C(=O)c2c(F)cc(F)cc2F)c2ccc3cccc4c5cccc6ccc1c(c65)c2c34", "values": [
      {"measurement": "emission maximum", "setting": "in ClCCl", "result": 499, "unit": "nm"}
    ]},
    {"smiles": "c1ccc(-c2nc(-c3c[nH]c4ccccc34)n3ccccc23)cc1", "values": [
      {"measurement": "emission maximum", "setting": "in C1CCCCC1", "result": 482, "unit": "nm"},
      {"measurement": "emission maximum", "setting": "in CC#N", "result": 506, "unit": "nm"},
      {"measurement": "emission maximum", "setting": "in CO", "result": 500, "unit": "nm"},
      {"measurement": "emission maximum", "setting": "in ClCCl", "result": 506, "unit": "nm"},
      {"measurement": "emission maximum", "setting": "in O", "result": 507, "unit": "nm"}
    ]},
    {"smiles": "Cc1ccc(-c2ccc(/C=C/c3ccccc3)cn2)nc1", "values": [
      {"measurement": "emission maximum", "setting": "in CC#N", "result": 392, "unit": "nm"}
    ]},
    {"smiles": "CCCCCCCCOc1ccc(C#Cc2ccc3oc4ccccc4c3c2)c(OCCCCCCCC)c1", "values": [
      {"measurement": "emission maximum", "setting": "in ClCCl", "result": 373, "unit": "nm"}
    ]},
    {"smiles": "COc1ccc(-c2cc(-c3ccc(C)cc3)nc3c(C#N)c(N4CCCC4)nc(N)c23)cc1", "values": [
      {"measurement": "emission maximum", "setting": "in CC#N", "result": 521, "unit": "nm"},
      {"measurement": "emission maximum", "setting": "in CC(C)=O", "result": 517, "unit": "nm"},
      {"measurement": "emission maximum", "setting": "in CC(C)O", "result": 511, "unit": "nm"},
      {"measurement": "emission maximum", "setting": "in CO", "result": 519, "unit": "nm"},
      {"measurement": "emission maximum", "setting": "in ClC(Cl)Cl", "result": 504, "unit": "nm"},
      {"measurement": "emission maximum", "setting": "in ClCCl", "result": 509, "unit": "nm"},
      {"measurement": "emission maximum", "setting": "in c1ccccc1", "result": 513, "unit": "nm"}
    ]},
    {"smiles": "CC(C)[Si](C#Cc1c2nc3ccccc3nc2c(C#C[Si](C(C)C)(C(C)C)C(C)C)c2nc3ccccc3nc12)(C(C)C)C(C)C", "values": [
      {"measurement": "emission maximum", "setting": "in CCCCCC", "result": 694, "unit": "nm"}
    ]},
    {"smiles": "Cc1c(C(=O)c2ccccc2)c2ccc3cccc4c5cccc6ccc1c(c65)c2c34", "values": [
      {"measurement": "emission maximum", "setting": "in ClCCl", "result": 478, "unit": "nm"}
    ]},
    {"smiles": "Cc1cc2c3ccccc3oc2c2[nH]c3ccccc3c12", "values": [
      {"measurement": "emission maximum", "setting": "in ClCCl", "result": 353, "unit": "nm"}
    ]},
    {"smiles": "Cc1nc2cccc(-c3nc4ccccc4[nH]3)c2c(=O)[nH]1", "values": [
      {"measurement": "emission maximum", "setting": "in CN(C)C=O", "result": 441, "unit": "nm"}
    ]},
    {"smiles": "COc1ccc2c(c1)nc(-c1ccccc1)n2-c1ccccc1", "values": [
      {"measurement": "emission maximum", "setting": "in CC#N", "result": 391, "unit": "nm"}
    ]},
    {"smiles": "CC1=CC(C)=[N+]2C1=C(c1ccc(I)cc1)c1c(C)cc(C)n1[B-]2(Oc1ccccc1)Oc1ccccc1", "values": [
      {"measurement": "emission maximum", "setting": "in ClC(Cl)Cl", "result": 517.5, "unit": "nm"}
    ]},
    {"smiles": "Cc1cc(O)c(C(=O)/C=C/c2ccc(Cl)cc2)c(=O)o1", "values": [
      {"measurement": "emission maximum", "setting": "in CC#N", "result": 497, "unit": "nm"},
      {"measurement": "emission maximum", "setting": "in ClCCl", "result": 478, "unit": "nm"}
    ]},
    {"smiles": "CCN1c2ccc(/C=N/Nc3ccccn3)cc2Sc2cc(-c3ccccc3)ccc21", "values": [
      {"measurement": "emission maximum", "setting": "in C1CCOC1", "result": 487, "unit": "nm"},
      {"measurement": "emission maximum", "setting": "in CS(C)=O", "result": 503, "unit": "nm"},
      {"measurement": "emission maximum", "setting": "in Cc1ccccc1", "result": 485, "unit": "nm"},
      {"measurement": "emission maximum", "setting": "in ClCCl", "result": 497, "unit": "nm"}
    ]},
    {"smiles": "CCCCCC(=O)c1c2c(c(C(=O)CCCCC)c3c1OC1(CCCC1)O3)OC1(CCCC1)O2", "values": [
      {"measurement": "emission maximum", "setting": "in CC#N", "result": 561, "unit": "nm"},
      {"measurement": "emission maximum", "setting": "in CCCCCC", "result": 525, "unit": "nm"},
      {"measurement": "emission maximum", "setting": "in CCO", "result": 596, "unit": "nm"},
      {"measurement": "emission maximum", "setting": "in CO", "result": 611, "unit": "nm"},
      {"measurement": "emission maximum", "setting": "in ClCCl", "result": 561, "unit": "nm"}
    ]},
    {"smiles": "COc1ccc(/C=C/c2ccc(-c3nnc(-c4ccc(-c5cc6ccccc6s5)cc4)o3)cc2)cc1", "values": [
      {"measurement": "emission maximum", "setting": "in CC#N", "result": 441, "unit": "nm"},
      {"measurement": "emission maximum", "setting": "in CC(C)=O", "result": 449, "unit": "nm"},
      {"measurement": "emission maximum", "setting": "in CCCCCCCC", "result": 407, "unit": "nm"},
      {"measurement": "emission maximum", "setting": "in CCCCCCCCCCO", "result": 427, "unit": "nm"},
      {"measurement": "emission maximum", "setting": "in CCCCCCCCO", "result": 433, "unit": "nm"},
      {"measurement": "emission maximum", "setting": "in CCCCCO", "result": 436, "unit": "nm"},
      {"measurement": "emission maximum", "setting": "in CCCO", "result": 438, "unit": "nm"},
      {"measurement": "emission maximum", "setting": "in CN(C)C=O", "result": 463, "unit": "nm"},
      {"measurement": "emission maximum", "setting": "in CO", "result": 445, "unit": "nm"},
      {"measurement": "emission maximum", "setting": "in CS(C)=O", "result": 459, "unit": "nm"}
    ]},
    {"smiles": "O=Cc1ccc(-c2ccc(O)c(-c3nc4ccccc4s3)c2)o1", "values": [
      {"measurement": "emission maximum", "setting": "in CCO", "result": 550, "unit": "nm"},
      {"measurement": "emission maximum", "setting": "in ClCCl", "result": 553, "unit": "nm"},
      {"measurement": "emission maximum", "setting": "in O", "result": 564, "unit": "nm"}
    ]},
    {"smiles": "Cc1cc(-c2nc3c4ccccc4c4ccccc4c3n2-c2ccc(C(C)(C)C)cc2)ccc1-c1ccc(-c2c(-c3ccccc3)nc3ccccn23)cc1", "values": [
      {"measurement": "emission maximum", "setting": "in ClCCl", "result": 416, "unit": "nm"}
    ]},
    {"smiles": "Cc1cc(=O)oc2cc(/[NH+]=C/C=C3/C=C(C(=O)O)NC(C(=O)O)C3)ccc12", "note": "(stereo not drawn)", "values": [
      {"measurement": "emission maximum", "setting": "in O", "result": 570, "unit": "nm"}
    ]},
    {"smiles": "CCCCCCCCCCOC(=O)c1ccc2c3ccc(C(=O)OCCCCCCCCCC)c4c(C(=O)OCCCCCCCCCC)cc5[nH]c6cc(C(=O)OCCCCCCCCCC)c1c2c6c5c43", "values": [
      {"measurement": "emission maximum", "setting": "in C1CCOC1", "result": 493, "unit": "nm"}
    ]},
    {"smiles": "CC1=[N+]2C(=C(c3c4ccccc4cc4ccccc34)c3ccc(C)n3[B-]2(F)F)C=C1", "values": [
      {"measurement": "emission maximum", "setting": "in C1CCOC1", "result": 528, "unit": "nm"},
      {"measurement": "emission maximum", "setting": "in CC#N", "result": 524, "unit": "nm"},
      {"measurement": "emission maximum", "setting": "in CCCCCC", "result": "524 nm and 528 nm"},
      {"measurement": "emission maximum", "setting": "in CCO", "result": 524, "unit": "nm"},
      {"measurement": "emission maximum", "setting": "in CN(C)C=O", "result": 531, "unit": "nm"},
      {"measurement": "emission maximum", "setting": "in CO", "result": 527, "unit": "nm"},
      {"measurement": "emission maximum", "setting": "in CS(C)=O", "result": 529, "unit": "nm"},
      {"measurement": "emission maximum", "setting": "in Cc1ccccc1", "result": 530, "unit": "nm"},
      {"measurement": "emission maximum", "setting": "in ClC(Cl)Cl", "result": 526, "unit": "nm"},
      {"measurement": "emission maximum", "setting": "in ClCCl", "result": 528, "unit": "nm"}
    ]},
    {"smiles": "CCCCCCN1C(=O)c2cccc3c(-c4ccc(C)s4)ccc(c23)C1=O", "values": [
      {"measurement": "emission maximum", "setting": "in ClC(Cl)Cl", "result": 482, "unit": "nm"}
    ]},
    {"smiles": "CCCCCCCCOc1ccc(C2=C(c3ccc(OCCCCCCCC)cc3)C(C)(C)c3ccccc32)cc1", "values": [
      {"measurement": "emission maximum", "setting": "in C1CCCCC1", "result": 390, "unit": "nm"}
    ]},
    {"smiles": "CCCCOc1c(-c2ccc(C=O)cc2)cc2cc(-c3ccc(C=O)cc3)c(OCCCC)c3c4c(OCCCC)c(-c5ccc(C=O)cc5)cc5cc(-c6ccc(C=O)cc6)c(OCCCC)c(c1c23)c54", "values": [
      {"measurement": "emission maximum", "setting": "in ClCCl", "result": 500, "unit": "nm"}
    ]},
    {"smiles": "CCN(CC)c1ccc2cc(C#N)c(=O)oc2c1", "values": [
      {"measurement": "emission maximum", "setting": "in ClCCl", "result": 460, "unit": "nm"}
    ]},
    {"smiles": "c1ccc2cc3c(cc2c1)oc1c2oc4cc5ccccc5cc4c2c2ccccc2c31", "values": [
      {"measurement": "emission maximum", "setting": "in C1CCOC1", "result": 399, "unit": "nm"}
    ]},
    {"smiles": "COc1ccc2cc(C#Cc3ccc([N+](=O)[O-])cc3)ccc2c1", "values": [
      {"measurement": "emission maximum", "setting": "in C1CCOC1", "result": 533, "unit": "nm"},
      {"measurement": "emission maximum", "setting": "in ClC(Cl)Cl", "result": 592, "unit": "nm"},
      {"measurement": "emission maximum", "setting": "in ClCCl", "result": 635, "unit": "nm"}
    ]},
    {"smiles": "CN(C)c1ccc(/C=C/c2cnc(/C=C/c3ccc(C#N)cc3)o2)cc1", "values": [
      {"measurement": "emission maximum", "setting": "in ClCCl", "result": 640, "unit": "nm"}
    ]},
    {"smiles": "C[Si]1(C)O[Si](C)(C)c2cc3cc4cc5c(cc4cc3cc21)C(=O)c1cc2cc3cc4c(cc3cc2cc1C5=O)[Si](C)(C)O[Si]4(C)C", "values": [
      {"measurement": "emission maximum", "setting": "in ClC(Cl)Cl", "result": 518, "unit": "nm"}
    ]}
  ]
}
